This passage reports IC50 and EC50 results from patent US20240228476A1, “INHIBITORS OF PROTEIN TYROSINE PHOSPHATASE, COMPOSITIONS, AND METHODS OF USE” (BRISTOL-MYERS SQUIBB COMPANY, priority 2022, published 2024).

Where only a bound is given, the exact number is not on record here.

The target of assay [1] is T1, PTPN2 (Homo sapiens, UniProt P17706).
T1 sequence (P17706 1-415): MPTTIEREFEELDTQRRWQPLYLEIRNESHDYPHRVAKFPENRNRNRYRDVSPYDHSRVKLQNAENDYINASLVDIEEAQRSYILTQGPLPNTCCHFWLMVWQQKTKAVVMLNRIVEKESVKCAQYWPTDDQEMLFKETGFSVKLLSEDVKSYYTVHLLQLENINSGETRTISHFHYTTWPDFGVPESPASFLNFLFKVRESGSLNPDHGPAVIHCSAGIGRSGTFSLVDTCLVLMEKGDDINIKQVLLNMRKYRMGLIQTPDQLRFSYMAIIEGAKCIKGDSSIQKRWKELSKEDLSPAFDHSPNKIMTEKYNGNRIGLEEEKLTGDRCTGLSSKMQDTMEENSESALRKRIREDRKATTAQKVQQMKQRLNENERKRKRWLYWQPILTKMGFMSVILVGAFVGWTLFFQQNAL
In words: Phosphatase activity assay using DiFMUP as substrate. The format is biochemical. Details: purchased MilliporeSigma SRP5075. To be noted: 10 mM DTT, PTPN2 0.15 nM, room temperature, read-out: PTPN2 BCHEM DIFMUP IC50. On the procedure: The PTPN2 biochemical assay was performed as follows, a 5× stock solution of human PTPN2 (SRP5075, MilliporeSigma, Burlington, MA) and a 1.25× stock solution of DiFMUP (D6567, ThermoFisher Scientific, Waltham, MA), were prepared in 1× reaction buffer consisting of 50 mM HEPES, pH 7.4, 1 mM EDTA, 150 mM NaCl, 0.2 mg/mL BSA, 100 U/mL catalase and 10 mM DTT. […] of the DiFMUP substrate solution, for a final concentration of […] DiFMUP substrate, was added to a Corning 3574 384-well, white, non-binding surface microtiter plate containing […] of serially diluted test compounds prepared in DMSO. The reactions were started with the addition of […] of the enzyme solution, for a final PTPN2 concentration of 0.15 nM, and monitored every 105 seconds for 60 minutes at λEX 360/λEM 460 in a BioTek Synergy HTX plate reader (Agilent Technologies, Santa Clara, CA) at room temperature. The initial linear portions of the progress curves were fit according to a linear equation to yield the slopes and converted to % inhibition based on a value of 100% activity for the no inhibitor treated control. IC50 values of each compound were obtained by fitting the % inhibition-compound concentration curves using Dotmatics software (Dotmatics, Bishops Stortford, Hertfordshire, England)
(§1) For IC50 data, High DDT concentration and/or DiFMUP substrate assays were used; a skilled artisan may use either assay.

Assay [2] has as its target T1, PTPN2. The assay can be described thus: PTPN2 biochemical assay (PhosphoSens, substrate AQT0264). To be noted: PhosphoSens substrate AQT0264 20 μM, room temperature; read-out: PTPN2 BCHEM IC50. Here is the method:
A PhosphoSens® kinase assay was performed as described by the vendor (AssayQuant Technologies, Marlborough, MA). Briefly, 1000× solutions of compounds were prepared in DMSO via serial dilution of the 10 mM DMSO stocks using 3-fold intervals in a 384-well reagent plate. 50 nL of the compound dilution series was then added to the corresponding wells of a 384-well assay plate. 40 mL of 1.25× substrate (AQT0264) in 1× assay buffer (50 mM HEPES pH 7.5, 500 μM EGTA, […] MgCl2, 0.01% Brij-35, 1% Glycerol, 1 mM DTT, and 0.2 mg/mL BSA) was transferred to each well of the assay plate to achieve a final substrate concentration of 20 μM. Finally, […] of 5×PTPN2 enzyme stock was added to each well of the assay plate for a final enzyme concentration of […]. Reaction progress curves were collected by sampling fluorescence intensity at the excitation wavelength 360 nm (λex360) and emission wavelength 480 nm (λem480) every 71 seconds for one hour using a Synergy H4 plate reader (BioTek Instruments/Agilent Technologies, Winooski, VT) at room temperature.
as §1

Assay [3] deals with B16-F10 cells. The assay can be described thus: Cell proliferation assay (CellTiter-Glo) in B16-F10 cells with IFN-gamma. It counts as cell-based. The following applies: 120 h, mouse IFN-gamma 10 ng/mL, read-out: PTPN2 Prolif 5d B16F10 EC50. On the procedure:
B16-F10 cells (ATCC, Manassas, VA, #CRL-6475) were cultured in DMEM growth medium (ThermoFisher Scientific, Waltham, MA, #11995-040) supplemented with 10% heat inactivated FBS (ThermoFisher Scientific, #16140-071) and 1% pen/strep (ThermoFisher Scientific, #15140-122). The cells were seeded into two white opaque 384-well tissue culture treated microplates (PerkinElmer, Waltham, MA, #6007688) at a density of 100 cells/well in 20 uL total volume and incubated overnight at 37 C and 5% CO2. 30 nL of compounds dissolved in DMSO were then transferred from a source plate into target wells with the Echo650 acoustic liquid handler (Beckman Coulter, Indianapolis, IN). Negative control wells received 30 nL of DMSO only (0.15% final concentration). Plates were returned to the incubator for 1 hour and then cells treated with either 5 uL of growth medium or 5 uL of growth medium containing 50 ng/ml of recombinant mouse IFN-gamma protein (R&D Systems, Minneapolis, MN, #485-MI/CF, 10 ng/mL final concentration) using the Assist automated pipetting platform (INTEGRA Biosciences, Hudson, NH). Plates were incubated at 37 C for 4 days and cell proliferation assayed with the CellTiter-Glo reagent (Promega, Madison, WI, #G7573, 25 uL per well). […] Off-target compound mediated cytotoxicity was identified by checking for growth inhibition in the absence of IFNg.
Background: ATP-based viability assays read luminescence as a measure of living cells.

Assay [4] relates to phospho-STAT1 (Tyr701). In words: Phospho-STAT1 (Tyr701) HTRF assay in B16-F10 cells. It counts as cell-based. To be noted: mouse IFN-gamma 100 ng/ml, 1 hour, read-out: pSTAT1 HTRF B16 EC50. On the procedure: B16-F10 cells (ATCC, Manassas, VA, #CRL-6475) were cultured in DMEM growth medium (ThermoFisher Scientific, Waltham, MA, #11995-040) supplemented with 10% heat inactivated FBS (ThermoFisher Scientific, #16140-071) and 1% pen/strep (ThermoFisher Scientific, #15140-122). The cells were seeded into a white opaque 384-well tissue culture treated microplate (PerkinElmer, Waltham, MA, #6007688) at a density of 10,000 cells/well in 20 uL total volume and incubated overnight at 37 C and 5% CO2. 30 nL of compounds dissolved in DMSO were then transferred from a source plate into target wells with the Echo650 acoustic liquid handler (Beckman Coulter, Indianapolis, IN). Negative control wells received 30 nL of DMSO only (0.15% final concentration). Plates were returned to the incubator for 1 hour and then cells treated with either 5 uL of growth medium or 5 uL of growth medium containing 500 ng/ml of recombinant mouse IFN-gamma protein (R&D Systems, Minneapolis, MN, #485-MI/CF, 100 ng/ml final concentration) using the Assist automated pipetting platform (INTEGRA Biosciences, Hudson, NH). Plates were incubated at 37 C for 1 hour and assayed for phosphorylated STAT1 protein levels with the phospho-STAT1 (Tyr701) HTRF kit (Cisbio, Bedford, MA, #63ADK026PEH) according to manufacturer's instructions. HTRF signal intensity was collected with the En Vision 2105 plate reader (PerkinElmer) 24 hours later and analyzed with the Dotmatics software platform to calculate compound IC50 values.
(In general: Time-resolved FRET reads energy transfer from a long-lived donor to a nearby acceptor.)

What is called IC50 is the concentration that gives 50% inhibition. What is called EC50 is the midpoint of the concentration-response curve.

As for `Cc1cc(NCc2cc(O)c(N3CC(=O)NS3(=O)=O)c(F)c2)cc(C)n1` [EXAMPLE 2, 5-[4-[[(2,6-dimethyl-4-pyridyl)amino]methyl]-2-fluoro-6-hydroxy-phenyl]-1,1-dioxo-1,2,5-thiadiazolidin-3-one], the IC50 in assay [1] was 50 nM; in assay [2], 10 nM. The EC50 in assay [3] is 6000 nM; in assay [4] it was 14000 nM.

For the molecule `N#Cc1cncc(NCc2cc(O)c(N3CC(=O)NS3(=O)=O)c(F)c2)c1` [EXAMPLE 4, 5-[[3-fluoro-5-hydroxy-4-(1,1,4-trioxo-1,2,5-thiadiazolidin-2-yl)phenyl]methylamino]pyridine-3-carbonitrile], the figures for the 50% inhibitory concentration (IC50) in assay [1] and in assay [2] were 11 nM and 44 nM, respectively. Also, the concentration giving a half-maximal response (EC50) in assay [3] is 1650 nM; in assay [4], 1850 nM.

On to `Cc1ncc(C)c(NCc2cc(O)c(N3CC(=O)NS3(=O)=O)c(F)c2)n1` [EXAMPLE 27, 5-[4-[[(2,5-dimethylpyrimidin-4-yl)amino]methyl]-2-fluoro-6-hydroxy-phenyl]-1,1-dioxo-1,2,5-thiadiazolidin-3-one], for which the figures for the IC50 in assay [1] and in assay [2] were 30 nM and 40 nM, respectively. In addition, the figures for the concentration for a half-maximal effect (EC50) in assay [3] and in assay [4] were 10100 nM and 8600 nM, respectively.

Turning to `CC(C)c1cnc(NCc2cc(O)c(N3CC(=O)NS3(=O)=O)c(F)c2)nc1` [EXAMPLE 11, 5-[2-fluoro-6-hydroxy-4-[[(5-isopropylpyrimidin-2-yl)amino]methyl]phenyl]-1,1-dioxo-1,2,5-thiadiazolidin-3-one], in assay [2], the 50% inhibitory concentration (IC50) was 140 nM. Also, the results for the 50% effective concentration (EC50) in assay [3] and in assay [4] were 6020 nM and 1770 nM, respectively.

`N#Cc1cnc(NCc2cc(O)c(N3CC(=O)NS3(=O)=O)c(F)c2)nc1` [EXAMPLE 9, 2-[[3-fluoro-5-hydroxy-4-(1,1,4-trioxo-1,2,5-thiadiazolidin-2-yl)phenyl]methylamino]pyrimidine-5-carbonitrile]: the half-inhibitory concentration (IC50) in assay [1] was 210 nM; in assay [2], 30 nM. Besides, the EC50 came out at 1290 nM in assay [3] and 490 nM in assay [4].

As for `Cc1ncc(NCc2cc(O)c(N3CC(=O)NS3(=O)=O)c(F)c2)nc1C` [EXAMPLE 19, 5-[4-[[(5,6-dimethylpyrazin-2-yl)amino]methyl]-2-fluoro-6-hydroxy-phenyl]-1,1-dioxo-1,2,5-thiadiazolidin-3-one], the IC50 in assay [1] is 50 nM; in assay [2], 10 nM. Also, the 50% effective concentration (EC50) in assay [3] stood at 1240 nM; in assay [4], 370 nM.

For the molecule `O=C1CN(c2c(O)cc(CNc3ccc(C4CC4)nc3)cc2F)S(=O)(=O)N1` [EXAMPLE 10, 5-[4-[[(6-cyclopropyl-3-pyridyl)amino]methyl]-2-fluoro-6-hydroxy-phenyl]-1,1-dioxo-1,2,5-thiadiazolidin-3-one], the results for the IC50 in assay [1] and in assay [2] were 100 nM and 10 nM, respectively. Moreover, the EC50 in assay [3] worked out at 410 nM; in assay [4], 650 nM.

With `Cc1cc(C)nc(NCc2cc(O)c(N3CC(=O)NS3(=O)=O)c(F)c2)n1` [EXAMPLE 29, 5-[4-[[(4,6-dimethylpyrimidin-2-yl)amino]methyl]-2-fluoro-6-hydroxy-phenyl]-1,1-dioxo-1,2,5-thiadiazolidin-3-one], the IC50 in assay [1] was determined as 60 nM. Moreover, the EC50 in assay [3] amounted to 4770 nM; in assay [4], 760 nM.

For `Cc1ccc(NCc2cc(O)c(N3CC(=O)NS3(=O)=O)c(F)c2)nn1` [EXAMPLE 28, 5-(2-fluoro-6-hydroxy-4-(((6-methylpyridazin-3-yl)amino)methyl)phenyl)-1,2,5-thiadiazolidin-3-one 1,1-dioxide], the IC50 in assay [1] was 20 nM. Further, the concentration giving a half-maximal response (EC50) was determined as 630 nM in assay [3] and 250 nM in assay [4].

On to `N#Cc1ncc(NCc2cc(O)c(N3CC(=O)NS3(=O)=O)c(F)c2)cn1` [EXAMPLE 32, 5-((4-(1,1-dioxido-4-oxo-1,2,5-thiadiazolidin-2-yl)-3-fluoro-5-hydroxybenzyl)amino)pyrimidine-2-carbonitrile], for which the half-maximal inhibitory concentration (IC50) in assay [1] came out at 1 nM. Further, the results for the 50% effective concentration (EC50) in assay [3] and in assay [4] were 1380 nM and 730 nM, respectively.

Regarding `COc1nc(NCc2cc(O)c(N3CC(=O)NS3(=O)=O)c(F)c2)cnc1C` [EXAMPLE 25, 5-[2-fluoro-6-hydroxy-4-[[(6-methoxy-5-methyl-pyrazin-2-yl)amino]methyl]phenyl]-1,1-dioxo-1,2,5-thiadiazolidin-3-one], in assay [1], the IC50 came out at 20 nM. Besides, the results for the concentration for a half-maximal effect (EC50) in assay [3] and in assay [4] were 11300 nM and 3430 nM, respectively.

Regarding `COc1cnc(C)c(NCc2cc(O)c(N3CC(=O)NS3(=O)=O)c(F)c2)n1` [EXAMPLE 21, 5-[2-fluoro-6-hydroxy-4-[[(6-methoxy-3-methyl-pyrazin-2-yl)amino]methyl]phenyl]-1,1-dioxo-1,2,5-thiadiazolidin-3-one], the IC50 in assay [1] was 20 nM. Further, the figures for the EC50 in assay [3] and in assay [4] were 7770 nM and 7860 nM, respectively.

Take `O=C1CN(c2c(O)cc(CNc3cnccc3-c3ccc(C(F)(F)F)cc3)cc2F)S(=O)(=O)N1` [EXAMPLE 30, 5-[2-fluoro-6-hydroxy-4-[[[4-[4-(trifluoromethyl)phenyl]-3-pyridyl]amino]methyl]phenyl]-1,1-dioxo-1,2,5-thiadiazolidin-3-one]: in assay [1], the IC50 worked out at 60 nM. Moreover, the concentration giving a half-maximal response (EC50) in assay [3] and in assay [4] was greater than 15000 nM throughout.
